From article PMC5812297, “Specificity and Application of the Lantibiotic Protease NisP” (Frontiers in Microbiology, 2018)
“Also recorded” adds a separate entry of the source. Ends that are not written are not given here.

Tests used:
[1] = test system: engineered soluble NisP; experiment: Enzyme kinetic assay of NisP cleavage of prenisin variants (Lineweaver–Burk, RP-HPLC); type: biochemical, Lactococcus lactis; settings: for Kcat/Km in comparison, in words: among the four prenisin variants, or vs literature
Experimental: In order to investigate the substrate specificity and kinetic parameters of NisP, a set of mutants of P4-P1 was created. We used wild-type prenisin (ASPR), nis-Peng (VSLR), nis-Thrombin (AVPR), and nis-Factor Xa (IEGR) as substrates. The concentration of NisP was determined by the BCA assay with bovine serum albumin as standard. The conditions of cleavage reaction were optimized with 100 mM Tris buffer containing 5 mM CaCl2 (pH 6.0). The reaction was stopped at the indicated times adding TFA to a final concentration of 1%. The reaction was performed in 100 μl with 6.5 ng/ml NisP at 37°C. 1% TFA was added to terminate the reaction at 5 different time points (5, 15, 30, 45, and 60 min). All the samples were analyzed by analytical RP-HPLC as indicated before (Mu et al., [2015]) and measuring the absorbance at 205 nm. For each substrate concentration, the initial velocity was calculated on the basis of the peak area of released nisin vs. time. The kinetic parameters were determined by fitting the calculated enzyme activities at different substrate concentrations (ranging from 1 to 25 μM) to a linear regression curve on Lineweaver–Burk double reciprocal plot (Lineweaver and Burk, [1934]).

[2] = test system: NisP; experiment: Cleavage of nisin mutants by NisP in crude supernatants or purified peptide, masses by MALDI-TOF; type: biochemical, Lactococcus lactis; settings: His-tagged purified NisP, overnight 37°C, ratio 1000:1, culture pH (4.5–5.0) or pH 6.0, MALDI-TOF
Experimental: Alternatively, supernatants containing nisin mutant peptides produced after induction were divided into two fractions; one in which the pH was adjusted to 6.0 and the other one where the pH was the actual fermentation pH. They were incubated overnight at 37°C with or without His-tagged purified NisP at a ratio of 1000:1. After the incubation, the supernatants were precipitated using TCA and resuspended in 1/20 volume 0.05% acetic acid. For the mutants that were produced in lower amounts, larger volumes were induced and the peptides were purified by cationic exchange chromatography as described before and separated by reverse phase chromatography using a Jupiter 4 μm Proteo 90 Å 250 × 4.6 mm C12 analytical column (Phenomenex). The column was equilibrated in 20% organic solvent (acetonitrile 0.1% TFA) before the sample injection. It was washed for 5 min before applying a linear gradient from 20 to 50% organic solvent in 20 min. 1 μl of each collected peak was used for mass-spectrometry determination.
Mass spectrometry analysis of the samples was performed by matrix-assisted laser desorption/ionization (MALDI) time-of-flight (ToF) in an ABI Voyager DE Pro (Applied Biosystems) operating in linear mode as previously described using external calibration (van Heel et al., [2013]). Briefly, 1 μl sample was spotted, dried and washed with 5 μL Milli-Q water, on the target. Next, 1 μl of α-cyano-4-hydroxycinnamic acid 5 mg/ml (Sigma-Aldrich) was spotted on the sample.
We designed a set of nisin mutants to investigate the specificity of NisP (Figure 4). For all these mutants, supernatants were collected after induction and divided into three fractions. NisP was added to two of these fractions, one maintaining the pH of the culture (4.5–5.0) and the other fraction was adjusted to pH 6.0. The third fraction was used as an untreated control. After cleavage, the masses of the peptides were monitored by MALDI-TOF (Table 2).

[3] = test system: L. lactis NZ9000 (pNZnisP-8H); experiment: Antimicrobial activity of purified prelantibiotics against NisP producing sensor strain; type: cell-based, Lactococcus lactis; settings: data not shown
Experimental: (§1) Activity tests were performed by well-diffusion assay as indicated by van Heel et al. ([2013]). L. lactis NZ9000 transformed with the appropriate plasmids or Micrococcus flavus were used as sensor strains as specified in each figure. The cleavage of nisin by NisP after SDS-PAGE was monitored washing the gel according to Bhunia et al. ([1987]) and covering with an overlay of GM17 soft agar inoculated with NZ9000 (pIL3BTC pNZnisA-E3) induced with 1 ng/ml nisin. The overlay was incubated for 16 h, after which the presence of inhibition zones was evaluated.
The substrate tolerance of soluble NisP was tested using a set of different lantibiotics. These were produced using the nisin modification machinery encoded in NZ9000 (pIL3BTC pNZE3-mutant) and purified by cationic exchange chromatography. For this purpose, NZ9000 (pNZ-nisP-8H) was used as a sensor strain and tested using gallidermin (van Heel et al., [2013]) and two lantibiotics detected in the genome of Streptococcus pneumoniae, PneA1 and PneA2 encoded in the genes spr1765 and spr1766, respectively, which were heterologously expressed in L. lactis fused to the nisin leader peptide (Majchrzykiewicz et al., [2010]) (Figure 5). […] The activity was restored when a strain producing soluble NisP was employed.
Figure 5 Antimicrobial activity of purified modified lantibiotics gallidermin, 1215 and 1268 against L. lactis NZ9000 (pNZnisP-8H). […]

[4] = test system: L. lactis NZ9000 (pIL253 pNZ8048); experiment: Activity of the proteases in crude supernatants, antimicrobial assay against L. lactis; type: cell-based, Lactococcus lactis; settings: 1 μl protease with 50 μl supernatant containing its corresponding prenisin variant
Experimental: as §1
To further compare the versatility of NisP in culture conditions with various proteases frequently used in biotechnology, we mutated the last four amino acids in the leader peptide (P4-P1) of nisin (i.e., ASPR) to insert a factor Xa (IEGR) or a thrombin (AVPR) cleavage site. We also mutated the arginine in position P1 of the leader peptide into glutamic acid, creating a cleavage site for the endoprotease Glu-C. Additionally, the proposed self-cleavage sequence of NisP (VSLR) (Figure 1, van der Meer et al., [1993]) was used to replace the ASPR sequence at the end of the nisin leader peptide. […] The cleavage was evaluated by activity against NZ9000 (pIL253 pNZ8048), which is resistant to the erythromycin and chloramphenicol present in the supernatants of the substrate producer strains but sensitive to nisin. […]

[5] = test system: Micrococcus flavus; experiment: Activation of prenisin with supernatants containing NisP variants, antimicrobial assay; type: cell-based; settings: supernatants after 3 h induction; in the first test 5 μl with 50 μl prenisin
Experimental: as §1
The supernatants of the strains NZ9000 (pNZnisPsl-8H) and NZ9000 (pNZnisPsl-8K) were tested for the presence of protease activity after 3 h of induction with nisin. In each case, 5 μl of the supernatant was mixed with 50 μl of prenisin obtained by TCA precipitation of induced NZ9000 (pIL3BTC pNZnisA-E3). […]
In a second approach, we attempted to reduce the size of NisP, while keeping the active subtilisin-like domain intact. […] Additionally, the size of the inhibition halo measured is larger in the samples activated with the soluble protease present in the supernatants of these three engineered strains compared to the samples activated with the supernatant of L. lactis NZ9000 (pNGnisTP), which produces as a major product wild-type cell-anchored NisP.

[6] = 100 mM Tris 5 mM CaCl2 pH 6.0, 37°C, 6.5 ng/ml NisP, substrate 1 to 25 μM, Lineweaver–Burk, mean value ± standard deviation

“WT Prenisin (ASPR): fully modified nisin with its leader peptide (ASPR cleavage site); inactive until leader is removed (MSTKDFNLDLVSVSKKDSGASPRITSISLCTPGCKTGALMGCNMKTATCHCSIHVSK; not fully specified (bridges); cysteine pairing not given here; also: fully modified nisin, modifications not placed; UniProt P13068 1-57, looked up)” was tested, and the “Kcat/Km (catalytic efficiency)” value ([1]; 100 mM Tris 5 mM CaCl2 pH 6.0, 37°C, 6.5 ng/ml NisP) was 1.71e+06 M⁻¹ s⁻¹, the Km ([1]; 100 mM Tris 5 mM CaCl2 pH 6.0, 37°C, 6.5 ng/ml NisP, substrate 1 to 25 μM, 5-60 min, RP-HPLC 205 nm, Lineweaver–Burk, mean value ± standard deviation) was 0.73 ± 0.08 µM and the Kcat [1, 6] was 1.25 ± 0.07 s⁻¹. The Vmax [1, 6] was 1.79 ± 0.10 µmol/mg/min, the “Kcat/Km in comparison, in words” value ([1]; listed as wild-type nisin) was “in line with previous results in literature” and the “Kcat/Km in comparison, in words” value ([1]; listed as wild-type prenisin (ASPR)) was “highest catalytic efficiency”. For the same molecule, the “Cleavage by NisP” value [2] was “fully cleaved” and the “Antimicrobial activity in the absence of NisP” value ([3]; no NisP) was “none of the prelantibiotics tested, not even prenisin, was active”.

For “nisin: mature model lantibiotic (ITSISLCTPGCKTGALMGCNMKTATCHCSIHVSK; Lantibiotic nisin-A; UniProt P13068 24-57, looked up)”, the “Sensitivity of the NisP producing strain to nisin” value ([3]; compared to the plasmid free strain) was “increased sensitivity”.

In the case of trypsin, the “Activity of the protease in culture conditions (release of active nisin)” value [4] is reported as “able to cleave in culture conditions” and the “Protease activity (antimicrobial activity after activation of prenisin)” value [5] is reported as “antimicrobial activity only in the positive controls”.

For thrombin, the “Activity of the protease in culture conditions (release of active nisin)” value [4] was “active; also recorded: able to cleave in culture conditions”.

B1: NZ9000 (pNGnisTP): strain producing as a major product wild-type cell-anchored NisP (protein, UniProt Q07596 1-682, looked up)
chain: MKKILGFLFIVCSLGLSATVHGETTNSQQLLSNNINTELINHNSNAILSSTEGSTTDSINLGAQSPAVKSTTRTELDVTGAAKTLLQTSAVQKEMKVSLQETQVSSEFSKRDSVTNKEAVPVSKDELLEQSEVVVSTSSIQKNKILDNKKKRANFVTSSPLIKEKPSNSKDASGVIDNSASPLSYRKAKEVVSLRQPLKNQKVEAQPLLISNSSEKKASVYTNSHDFWDYQWDMKYVTNNGESYALYQPSKKISVGIIDSGIMEEHPDLSNSLGNYFKNLVPKGGFDNEEPDETGNPSDIVDKMGHGTEVAGQITANGNILGVAPGITVNIYRVFGENLSKSEWVARAIRRAADDGNKVINISAGQYLMISGSYDDGTNDYQEYLNYKSAINYATAKGSIVVAALGNDSLNIQDNQTMINFLKRFRSIKVPGKVVDAPSVFEDVIAVGGIDGYGNISDFSNIGADAIYAPAGTTANFKKYGQDKFVSQGYYLKDWLFTTANTGWYQYVYGNSFATPKVSGALALVVDKYGIKNPNQLKRFLLMNSPEVNGNRVLNIVDLLNGKNKAFSLDTDKGQDDAINHKSMENLKESRDTMKQEQDKEIQRNTNNNFSIKNDFHNISKEVISVDYNINQKMANNRNSRGAVSVRSQEILPVTGDGEDFLPALGIVCISILGILKRKTKN
modifications: full-length
notes: strain producing as a major product wild-type cell-anchored NisP
With B1 the “Protease activity (antimicrobial activity after activation of prenisin)” value [5] was “antimicrobial activity only in the positive controls”.
